Test results: US7462644B2, “Therapeutic agents” (AstraZeneca AB, priority 2002, dated 2008)

Target: T1, human PPAR alpha (Homo sapiens, UniProt Q07869)
T1 sequence (Q07869 1-468): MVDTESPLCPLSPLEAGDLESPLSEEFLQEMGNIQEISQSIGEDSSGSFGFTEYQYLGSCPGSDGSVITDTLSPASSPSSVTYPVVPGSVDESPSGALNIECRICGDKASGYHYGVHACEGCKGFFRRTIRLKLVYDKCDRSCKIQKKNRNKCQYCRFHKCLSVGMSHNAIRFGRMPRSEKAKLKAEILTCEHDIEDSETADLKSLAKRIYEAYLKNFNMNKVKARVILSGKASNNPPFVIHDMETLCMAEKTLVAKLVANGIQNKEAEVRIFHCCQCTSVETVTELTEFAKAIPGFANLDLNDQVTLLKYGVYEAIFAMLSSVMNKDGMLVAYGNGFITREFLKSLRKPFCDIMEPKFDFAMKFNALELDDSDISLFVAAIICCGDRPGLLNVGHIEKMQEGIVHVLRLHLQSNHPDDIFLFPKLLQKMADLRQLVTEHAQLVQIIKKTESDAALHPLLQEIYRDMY
Assay: PPARα EC50 assay (assays described in WO03/051821)
Type: cell-based
Protocol: The compounds of the invention were tested in the assays described in WO03/051821.

Compound | EC50 [nM]
CCCCN(Cc1ccc(C(F)(F)F)cc1F)C(=O)COc1ccc(C[C@H](OCC)C(=O)O)cc1 [Example 1, (2S)-3-[4-(2-{Butyl[2-fluoro-4-(trifluoromethyl)benzyl]amino}-2-oxoethoxy)phenyl]-2-ethoxy propanoic Acid] | 1
CCO[C@@H](Cc1ccc(OCC(=O)N(CC)Cc2ccc(Cl)cc2)cc1)C(=O)O [Example 2, (2S)-3-(4-{2-[(4-Chlorobenzyl)(ethyl)amino]-2-oxoethoxy}phenyl)-2-ethoxypropanoic Acid] | 3

Further lines, results first:

EC50 [nM] | Compound
3 | CCO[C@@H](Cc1ccc(OCC(=O)N(CC)Cc2ccc(OC(F)(F)F)cc2)cc1)C(=O)O [Example 3]
3 | CCCCN(Cc1ccc(C(F)(F)F)cc1)C(=O)COc1ccc(C[C@H](OCC)C(=O)O)cc1 [Example 5]
5 | CCO[C@@H](Cc1ccc(OCC(=O)N(CC)Cc2ccc(C(F)(F)F)cc2)cc1)C(=O)O [Example 4, (2S)-2-Ethoxy-3-[4-(2-{ethyl[4-(trifluoromethyl)benzyl]amino}-2-oxoethoxy)phenyl]propanoic Acid]
